Source: patent publication US9732075B2, “Benzimidazole-proline derivatives” (IDORSIA PHARMACEUTICALS LTD, priority 2012, dated 2017)

Legend:
human orexin-1 receptor = human orexin-1 receptor (Homo sapiens (Human), UniProt O43613); assay: In vitro assay: intracellular calcium measurements (FLIPR), antagonistic activity; type: cell-based; details: CHO cells expressing human orexin-1 receptor, orexin-A agonist, geometric mean, read-out: IC50 Ox1
Method in brief: (§1)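 IC50s are geometric means, possibly reference-normalized, from FLIPR calcium peaks in CHO cells bearing human orexin-1 or orexin-2 receptor. Fluo-4 AM/probenecid-loaded cells received antagonist for 120 min before challenge with orexin-A (final 3 nM, ~EC70), with responses compared against vehicle controls.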

human orexin-2 receptor = human orexin-2 receptor (Homo sapiens (Human), UniProt O43614); assay: as above; type: cell-based; details: CHO cells expressing human orexin-2 receptor, orexin-A agonist, geometric mean, read-out: IC50 Ox2
Method in brief: as §1

Chain of human orexin-1 receptor (O43613 whole entry): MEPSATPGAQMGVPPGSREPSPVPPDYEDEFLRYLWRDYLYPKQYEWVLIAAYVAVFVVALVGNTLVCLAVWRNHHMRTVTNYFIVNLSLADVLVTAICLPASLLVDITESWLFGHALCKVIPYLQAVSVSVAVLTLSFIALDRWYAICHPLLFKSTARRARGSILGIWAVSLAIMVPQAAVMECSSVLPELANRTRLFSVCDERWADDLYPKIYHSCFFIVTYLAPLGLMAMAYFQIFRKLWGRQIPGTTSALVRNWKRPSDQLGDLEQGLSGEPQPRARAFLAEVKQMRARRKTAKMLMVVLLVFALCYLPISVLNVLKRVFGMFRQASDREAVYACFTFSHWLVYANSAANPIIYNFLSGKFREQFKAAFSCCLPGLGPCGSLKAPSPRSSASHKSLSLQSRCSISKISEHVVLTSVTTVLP
Chain of human orexin-2 receptor (O43614 whole entry): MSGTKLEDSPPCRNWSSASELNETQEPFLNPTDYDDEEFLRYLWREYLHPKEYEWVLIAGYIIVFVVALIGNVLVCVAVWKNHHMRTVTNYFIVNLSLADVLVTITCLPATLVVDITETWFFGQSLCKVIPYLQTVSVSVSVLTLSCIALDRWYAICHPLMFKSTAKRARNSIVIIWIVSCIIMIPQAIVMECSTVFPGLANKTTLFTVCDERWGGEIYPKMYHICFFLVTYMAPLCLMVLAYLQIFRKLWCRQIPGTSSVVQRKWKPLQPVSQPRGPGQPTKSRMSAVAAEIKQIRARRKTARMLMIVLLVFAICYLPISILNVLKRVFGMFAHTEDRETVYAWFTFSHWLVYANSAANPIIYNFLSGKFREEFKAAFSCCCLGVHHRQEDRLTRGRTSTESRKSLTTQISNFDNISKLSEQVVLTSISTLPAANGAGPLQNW

SMILES	IC50 (human orexin-1 receptor) [nM]	IC50 (human orexin-2 receptor) [nM]
Cc1ccc(-n2nccn2)c(C(=O)N2CCC[C@@]2(C)c2nc3cc(F)c(Br)cc3n2C)c1 [Ex. 7.32]	7	124
COc1ccc(-c2nccnc2C(=O)N2CCC[C@H]2c2nc3cccc(SC)c3[nH]2)cc1 [Ex. 1.72]	112	180
Cc1ccc(-c2ccccc2C(=O)N2CC[C@H](C)[C@H]2c2nc3cc(Cl)c(C)cc3[nH]2)cc1 [Ex. 4.77]	5	790
CSc1cccc2nc([C@@H]3CCCN3C(=O)c3cnc(C)nc3-c3ccc(Cl)c(Cl)c3)[nH]c12 [Ex. 1.79]	5	46
Cc1ccc(-n2nccn2)c(C(=O)N2CCC[C@@]2(C)c2nc3c(C)c(C)ccc3[nH]2)c1 [Ex. 5.28]	4	19
CCc1ccc(-c2sc(C)nc2C(=O)N2CCC[C@H]2c2nc3cccc(SC)c3[nH]2)cc1 [Ex. 1.69]	37	31
Cc1cc2[nH]c([C@@H]3[C@@H](C)CCN3C(=O)c3cc(F)ccc3-c3ccccc3)nc2cc1Cl [Ex. 4.105]	5	177
C=C1C[C@@H](c2nc3cc(C)c(C)cc3[nH]2)N(C(=O)c2cc(C)c(C)cc2-n2nccn2)C1 [Ex. 6.197]	6	2
COc1cc2nc([C@]3(C)CCCN3C(=O)c3cc(OC(F)(F)F)ccc3-n3nccn3)[nH]c2cc1OC [Ex. 5.84]	138	76
CO[C@@H]1C[C@@H](c2nc3ccc(Cl)c(C)c3[nH]2)N(C(=O)c2ccccc2-c2ccc(C)c(C)c2)C1 [Ex. 3.38]	6	13
Cc1c(Cl)ccc2c1nc([C@]1(C)CCCN1C(=O)c1ccccc1-n1nccn1)n2C [Ex. 7.19]	5	8
COc1ccc2[nH]c([C@@H]3CCCN3C(=O)c3nc(C)sc3-c3cccc(Cl)c3)nc2c1 [Ex. 1.9]	337	69
COc1ccc(-n2nccn2)c(C(=O)N2C[C@H](OC)C[C@H]2c2nc3ccc(Cl)c(C)c3n2C)c1 [Ex. 7.1]	16	162
COc1cc2nc([C@]3(C)CCCN3C(=O)c3sc(C)nc3-c3ccc(C)cc3)[nH]c2cc1OC [Ex. 5.75]	300	126
C=C1C[C@@H](c2nc3cc(C)c(C)cc3[nH]2)N(C(=O)c2c(C)cccc2-n2nccn2)C1 [Ex. 6.199]	143	6
Cc1cc2nc([C@]3(C)CCCN3C(=O)c3cc(Cl)ccc3-n3nccn3)[nH]c2cc1C [Ex. 5.53]	24	23
Cc1nc(C(=O)N2CC[C@H](C)[C@H]2c2nc3c(F)c(F)ccc3[nH]2)c(-c2cccc(Cl)c2)s1 [Ex. 4.23]	9	1940
COc1ccc2nc([C@@H]3CCCN3C(=O)c3cnc(C)nc3-c3ccccc3)[nH]c2c1 [Ex. 1.32]	347	139
Cc1nc(C(=O)N2CCC[C@H]2c2nc3cc(Cl)c(C(F)(F)F)cc3[nH]2)c(-c2ccccc2)s1 [Ex. 1.146]	7	23
COc1ccc2nc([C@@H]3CCCN3C(=O)c3nc(C4CC4)sc3-c3ccc(C)cc3)[nH]c2c1 [Ex. 1.23]	523	212
Cc1c(Cl)ccc2nc([C@]3(C)CCCN3C(=O)c3nc(-c4ccccc4)sc3-c3ccc(F)cc3)[nH]c12 [Ex. 5.226]	7	155
Cc1nc(C(=O)N2CCCC2c2nc3cc(OC(F)(F)F)ccc3[nH]2)c(-c2ccccc2)s1 (stereo not drawn) [Ex. 1.132]	90	614
Cc1nc(C(=O)N2CCCC2c2nc3cc(Cl)c(C)cc3[nH]2)c(-c2ccccc2)s1 (stereo not drawn) [Ex. 1.126]	18	24

SMILES	IC50 (human orexin-1 receptor) [nM]	IC50 (human orexin-2 receptor) [nM]
CCOc1ccc(-c2ccc(C)cc2C(=O)N2CCC[C@@]2(C)c2nc3cc(C(F)(F)F)c(Cl)cc3[nH]2)cc1 [Ex. 5.162]	252	250
C[C@@]1(c2nc3cc(C(F)(F)F)c(Cl)cc3[nH]2)CCCN1C(=O)c1cc(C(F)(F)F)ccc1-n1nccn1 [Ex. 5.144]	20	210
COc1cc2nc([C@]3(C)CCCN3C(=O)c3cc(Cl)ccc3-n3nccn3)[nH]c2cc1OC [Ex. 5.64]	17	19
CCn1c([C@]2(C)CCCN2C(=O)c2ccc(C)cc2-n2nccn2)nc2cc(C)c(C)cc21 [Ex. 7.12]	15	52
Cc1c(Cl)ccc2[nH]c([C@]3(C)CCCN3C(=O)c3cc(F)ccc3-c3ncccn3)nc12 [Ex. 5.224]	7	21
Cc1nc(C(=O)N2CCCC2c2nc3c4c(ccc3[nH]2)OCCO4)c(-c2ccccc2)s1 (stereo not drawn) [Ex. 1.140]	192	46
Cc1nc(C(=O)N2CC[C@H](C)[C@H]2c2nc3c(C)c(Cl)ccc3[nH]2)c(-c2cccc(Cl)c2)s1 [Ex. 4.21]	1	133
CSc1cccc2nc([C@@H]3CCCN3C(=O)c3nccnc3-c3cc(C)cc(F)c3)[nH]c12 [Ex. 1.74]	52	100
C=C1C[C@@H](c2nc3cc(C(C)(C)C)ccc3[nH]2)N(C(=O)c2c(C)cccc2-n2nccn2)C1 [Ex. 6.167]	573	25
C=C1C[C@@H](c2nc3cc(Cl)c(C(F)(F)F)cc3[nH]2)N(C(=O)c2c(-n3nccn3)ccc(OC)c2F)C1 [Ex. 6.179]	6	7
COc1ccc(-c2cccc(F)c2)c(C(=O)N2CCC[C@@]2(C)c2nc3ccc(Cl)c(C)c3[nH]2)c1F [Ex. 5.300]	10	18
Cc1ccc(-c2nc(C)sc2C(=O)N2CC[C@H](C)[C@H]2c2nc3cc(Cl)c(C)cc3[nH]2)cc1 [Ex. 4.79]	18	541
Cc1ccc(-c2cccc(C(F)(F)F)c2)c(C(=O)N2CCC[C@@]2(C)c2nc3cc(C(F)(F)F)c(Cl)cc3[nH]2)c1 [Ex. 5.155]	134	249
Cc1nc(C(=O)N2CCC[C@@]2(C)c2nc3cc(OC(F)(F)F)ccc3[nH]2)c(-c2cccc(Cl)c2Cl)s1 [Ex. 5.244]	62	641
CO[C@@H]1C[C@@H](c2nc3c(C)c(Cl)ccc3[nH]2)N(C(=O)c2nc(C)sc2-c2cccc(Cl)c2)C1 [Ex. 3.9]	1	2
Cc1nc(C(=O)N2CCCC2c2nc3cc(C(F)(F)F)c(F)cc3[nH]2)c(-c2cccc(Cl)c2)s1 (stereo not drawn) [Ex. 1.111]	32	243
COc1cc2nc([C@@H]3[C@@H](C)CCN3C(=O)c3cc(C(F)(F)F)ccc3-n3nccn3)[nH]c2cc1OC [Ex. 4.47]	176	281
CSc1cccc2nc([C@@H]3CCCN3C(=O)c3nc(C)sc3-c3cccc(C(F)(F)F)c3)[nH]c12 [Ex. 1.64]	12	18
CCn1c([C@]2(C)CCCN2C(=O)c2cc(C)ccc2-n2nccn2)nc2c(C)c(Cl)ccc21 [Ex. 7.21]	1	2
CO[C@H]1CN(C(=O)c2cc(C)ccc2-n2cccn2)C(C)(c2nc3c(C)c(Cl)ccc3[nH]2)C1 (stereo partly drawn) [Ex. 3.53]	10	20
Cc1ccc(C(=O)N2CCC[C@@]2(C)c2nc3c(C)c(Cl)ccc3[nH]2)c(-n2nccn2)c1 [Ex. 5.38]	4	12
CSc1cccc2nc([C@@H]3CCCN3C(=O)c3cnc(C)nc3-c3cccc(Cl)c3)[nH]c12 [Ex. 1.81]	20	116
